2 molecules from US20120107284A1, “Stem cells for transplantation and methods for production thereof” (priority 2006, published 2012) can be followed below.

The test system of assay [1] is Renilla luciferase controlled by rtTA2^s-M24C5G. As to the kind of experiment: Dual Tet-system reporter assay, Renilla luciferase, HeLa HLRF33/1141 cotransfected with cTA2D-5 and rtTA2s-M24C5G. It counts as cell-based. The note with it: HeLa cells (HLRF33/1141), 24 h incubation, 1 μg/ml. Here is the method: (§1) B: Regulatory properties. HeLa cells (HLRF33/1141) were cotransfected with two plasmids encoding the transregulators cTA2^D-5 and rtTA2^s-M24C5G. Reporter gene expression was scored after 24 h incubation with 1 μg/ml of either cmt3 or dox or both. Luciferase activities were determined from cell extracts and represent the means of triplicate samples with standard deviations given in arbitrary light units (ALU; defined as relative light units per mg of total cell protein corrected for transfection efficiency). Expression of Renilla luciferase controlled by rtTA2^s-M24C5G is increased about 1000-fold and only in the presence of dox (columns 3 and 4). Addition of cmt3 leads to a ˜100-fold decrease in firefly luciferase activity, controlled by cTA2^D-5 (columns 2 and 4), while expression of firefly luciferase is only slightly, less than 2-fold, reduced in the presence of dox. […] The regulatory system is thus functional and can be used for target gene expression in NCSCs.
(§2) Recently two transcription factors have been constructed—cTA2^D-5 and rtTA2^s-M24C5G—with exclusive specificities for DNA binding (wt TRE/4C5G TRE), effector recognition (cmt3/dox) and homodimer formation (class D/class B) (Dr. Christian Berens, Erlangen University). All these components were tested for the first time in eukaryotic cells to determine their regulatory properties (C. Berens, unpublished). […]
For orientation: In a reporter assay the amount or activity of a reporter protein is the signal.

The subject of assay [2] is firefly luciferase activity, controlled by cTA2^D-5. As to the kind of experiment: Dual Tet-system reporter assay, firefly luciferase, HeLa HLRF33/1141 cotransfected with cTA2D-5 and rtTA2s-M24C5G. It counts as cell-based. The note with it: HeLa cells (HLRF33/1141), 24 h incubation, 1 μg/ml. Here is the method: as §1, §2
In assay [3] the test system is dorsal root ganglion neurons. The assay can be described thus: Functionality of the Tet-system in vivo: DOX to pregnant Sox10-rtTA mice mated with TRE-Aml1/Runx1 males. The note with it: [Sox10-rtTA+TRE-Aml1/Runx1] pups; DOX in drinking water during pregnancy days 7-8 and 11.5-14. The text has this:
FIG. 8. Abnormalities in offspring of pregnant Sox10-rtTA mice which had been mated with TRE-Aml1/Runx1 males and treated with DOX during pregnancy days 7-8 and 11.5-14. Pups with the genotype [Sox10-rtTA+TRE-Aml1/Runx1] are smaller than normal and display pigment defects (upper left), megacolon (lower left), and a reduced size of dorsal root ganglia (upper and lower right).
FIG. 9. The number of dorsal root ganglion neurons is reduced compared to control (1) by about 50% in [Sox10-rtTA+TRE-Aml1/Runx1] pups from Sox10-rtTA mice, which hade been mated with TRE-Aml1/Runx1 males, and treated with DOX during pregnancy days 7-8 and 11.5-14 (2).
The functionality of the Tet-system in vivo was first confirmed. Sox10-rtTA female mice were bred with TRE-Aml1A/Runx1 males and DOX was given in the drinking water to the pregnant females pregnancy days 7 to 8 and 11.5 to 14, which correspond to the period NCSC migration. […] The number of DRG neurons was reduced by about 50% (FIG. 9).

As for `C[C@H]1c2cccc(O)c2C(=O)C2=C(O)[C@]3(O)C(=O)C(C(N)=O)=C(O)[C@@H](N(C)C)[C@@H]3[C@@H](O)[C@@H]21` [DOX, doxycycline], the “Increase in expression of Renilla luciferase controlled by rtTA2^s-M24C5G” value in assay [1] was “about 1000 fold”. The “Decrease in firefly luciferase activity controlled by cTA2^D-5” value in assay [2] was “less than 2 fold”. The “Reduction of the number of dorsal root ganglion neurons compared to control” value in assay [3] was “about 50%”.

As for `NC(=O)C1=C(O)C[C@@H]2C[C@@H]3Cc4cccc(O)c4C(=O)C3=C(O)[C@]2(O)C1=O` [cmt3], the “Decrease in firefly luciferase activity controlled by cTA2^D-5” value in assay [2] is listed as about 100 fold.
